Our source for the IC50 values is ChEMBL document CHEMBL5390302, “Novel PARP7 Inhibitors for Treating Cancer” (ACS Med Chem Lett, 2023).

In the test the target is T1, Protein mono-ADP-ribosyltransferase TIPARP (Homo sapiens, UniProt Q7Z3E1).
T1 sequence (Q7Z3E1 whole entry): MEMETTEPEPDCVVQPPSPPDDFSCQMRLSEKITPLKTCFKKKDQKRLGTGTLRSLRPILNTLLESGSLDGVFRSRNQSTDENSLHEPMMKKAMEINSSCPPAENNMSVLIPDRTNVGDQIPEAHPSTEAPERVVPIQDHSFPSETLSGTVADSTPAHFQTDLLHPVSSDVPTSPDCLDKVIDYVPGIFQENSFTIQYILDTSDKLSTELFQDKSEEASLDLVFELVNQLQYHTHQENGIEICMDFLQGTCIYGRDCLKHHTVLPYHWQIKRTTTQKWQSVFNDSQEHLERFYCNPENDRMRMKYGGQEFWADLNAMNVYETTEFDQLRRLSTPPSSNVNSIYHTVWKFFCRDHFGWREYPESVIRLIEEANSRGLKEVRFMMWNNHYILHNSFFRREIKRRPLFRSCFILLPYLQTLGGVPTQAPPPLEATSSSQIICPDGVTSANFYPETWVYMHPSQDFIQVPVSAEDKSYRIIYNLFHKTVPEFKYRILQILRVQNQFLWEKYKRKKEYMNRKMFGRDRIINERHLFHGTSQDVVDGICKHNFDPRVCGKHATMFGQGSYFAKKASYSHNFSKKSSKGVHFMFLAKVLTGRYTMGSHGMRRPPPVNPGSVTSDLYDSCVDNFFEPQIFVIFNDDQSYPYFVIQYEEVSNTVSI
Briefly: Displacement of biotinylated RBN011147 probe from PARP7 (unknown origin) preincubated for 1 hr followed by incubation with probe for 1.5 hrs by MSD electrochemiluminescent assay.

For orientation: IC50 means the point on the concentration scale where inhibition reaches its midpoint. A higher IC50 goes with weaker potency in that assay. Consider `C[C@@H](CCCn1ccc2cc(-c3ncc(C(F)(F)F)c(N4C[C@@H](O)[C@@H]4C)n3)c(F)cc2c1=O)Nc1cn[nH]c(=O)c1C(F)(F)F`, for which the IC50 is 0.185 nM.

For `C[C@@H](CCCn1ccc2cc(-c3ncc(Cl)c(N)n3)c(F)cc2c1=O)Nc1cn[nH]c(=O)c1C(F)(F)F`, the IC50 was 0.188 nM. `C[C@@H](CCCn1ccc2cc(-c3ncc(C(F)(F)F)c(N4CC(C#N)C4)n3)c(F)cc2c1=O)Nc1cn[nH]c(=O)c1C(F)(F)F` had an IC50 of 0.188 nM.
